Data as given in patent US7368279B2, “Three dimensional bioengineered smooth muscle tissue and sphincters and methods therefor” (The Regents of The University of Michigan, priority 2004, dated 2008).

How the values were obtained:
bioengineered IAS rings = assay: Isometric force of bioengineered IAS rings from adult, old and phosphomimic-HSP27 transfected old rat cells; type: cell-based
Description: To measure the passive baseline force, the differentiation media in the plate containing the bioengineered sphincter was replaced with 37° C. Krebs solution (NaCl (119 mM), KCl (4.6 mM), NaHCO3 (15 mM), CaCl2 (1.5 mM), MgCl2 (1.2 mM), […], and glucose (11 mM)) and the plate was placed on a heated aluminum platform, which maintained a temperature of 37° C. until the testing was complete. For contractility measurements, one end of the bioengineered sphincter was anchored by a stainless steel pin (10 mm×0.1 mm diameter) to the PDMS substrate within the plate, while another stainless steel pin was bent in the shape of a hook and attached by canning wax to a force transducer (resolution of 1.4 μN and range of 2mN) as previously described (Dennis et al., In Vitro Cellular & Developmental Biology Animal 36: 327-335, 2000, Macpherson et al., J Physiol 500: 523-533, 1997) and as depicted in FIG. 1 (Panels F and G). The bioengineered sphincter was stretched approximately 50% of its resting length using a three-axis micromanipulator. The ring was allowed to sit for 20 minutes in order to reestablish a stable baseline level of force (Pb), which was measured as the average baseline passive force preceding stimulation. All force measurements were collected at 100 samples/second for 60 seconds and recorded using a computer with LabVIEW data acquisition software (National Instruments, Austin, Tex.). A median filter of rank 2 was applied to all raw force data before being stored to minimize digitization noise without causing a phase delay for rapidly changing forces. The peak isometric force (ΔP) was determined by subtracting the Pb from the total force values. Specific force (sΔP) was calculated by dividing ΔP by the CSA. Data analysis was done using LabVIEW and Microsoft Excel software programs. Each measurement was repeated at least three times and the mean value was recorded. Bioengineered sphincter rings using smooth muscle cells isolated from IAS of adult and old rats were generated as described in Example 2 to study the molecular mechanism of aging on sphincteric smooth muscle. […] This corresponds to the previously described acetylcholine-induced contraction of human IAS muscle strips (16, 17, 27). […] Phosphomimic-HSP27 was introduced into the sphincteric smooth muscle cells from old rats. […] To test this hypothesis on a physiological level, bioengineered sphincter rings were made from phosphomimic-HSP27 transfected-IAS smooth muscle cells of old rats and the contractile response was assessed.

[1] = test system: isolated smooth muscle cells from the rabbit IAS; assay: Acetylcholine-induced contraction of isolated IAS smooth muscle cells (decrease in cell length); type: cell-based; conditions: for contraction, percent decrease in cell length from control: 10^−7 M acetylcholine, HEPES buffer; for decrease in cell length: acetylcholine, 0 Ca2+/2 mM EGTA HEPES buffer
From the text: Smooth muscle cells were isolated from the internal anal sphincter (IAS) of New Zealand White rabbits as described previously (Bitar et al., Am J Physiol 260: G537-G542, 1991; Bitar et al., Am J Physiol 242: G400-G407, 1982). Briefly, the IAS, consisting of the most distal 3 mm of the circular muscle layer, ending at the junction of skin and mucosa, was removed by sharp dissection. The sphincter was rapidly cleaned and striped of connective tissue in ice cold carbonated Krebs solution containing 2% penicillin-streptomycin. The tissue was cut into small pieces and transferred to a 100 mm plate containing 15 ml of HEPES buffer (pH 7.4; NaCl (115 mM), KCl (5.7 mM), KH2PO4 (2.0 mM), HEPES (24.6 mM), CaCl2 (1.9 mM), MgCl2 (0.6 mM), glucose (5.6 mM), 0.01% soybean trypsin inhibitor, and 0.184 (wt/vol) DMEM) with 0.1% collagenase type II (Worthington Biochemical Corp., Lakewood, N.J.) for digestion in an incubator (37° C. with 5% CO2) for 1 hour. Fresh HEPES buffer (15 ml) with collagenase was added and the contents of the plate were mechanically dissociated using a 10 ml pipette and incubated for 1 additional hour. After the second digestion period, the cells were collected, centrifuged at 800×g for 10 minutes and the supernatant discarded. The cells were washed (3×) a to ensure removal of excess collagenase and ultimately re-suspended in either HEPES buffer or 0 Ca^2+/2 mM EGTA HEPES buffer (HEPES without CaCl2 and containing 2 mM EGTA). To determine the effect of acetylcholine on contraction of isolated muscle cells, acetylcholine (10^−7 M) was added to a suspension of isolated smooth muscle cells for 30 seconds or 4 minutes with untreated cells as controls. The reaction was stopped and cells were fixed by the addition of 0.1 ml of acrolein at a final concentration of 0.1%. Individual cell lengths were measured by computerized image micrometry (Bitar et al., Am J Physiol 242: G400-G407, 1982. Bitar et al., Science 216: 531-533, 1982). The length of cells in the control state or after addition of acetylcholine was obtained by measuring 30-50 cells encountered randomly in successive microscopic fields from each of three separate experiments. The contractile response is defined as the decrease in the average length of the cells counted and is expressed as the percent change from the control length.

[2] = test system: bioengineered colon smooth muscle rings; assay: Isometric force of bioengineered colon smooth muscle rings; type: cell-based, rabbit
Description: To develop a three dimensional physiological model of the smooth muscle cells in vitro, isolated colonic smooth muscle cells were used. Smooth muscle cells isolated from the colon of rabbits were seeded in a fibrin-based tissue construct as described in detail in Example 2. In this construct, the smooth muscle cells migrated and self-assembled in circumferential alignment. As the cells proliferated, the fibrin gel shrunk and contracted around a 5 mm diameter SYLGARD mold, resulting in a 3-D cylindrical ring of colonic tissue (smooth muscle ring). […] Maximal ΔP induced by acetylcholine stimulation was 17.8 μN, resulting in a specific force (sΔP) of […].

CC(=O)OCC[N+](C)(C)C [acetylcholine]
maximum force of old rings, fold less than adult rings (FIG. 5 panel B) (bioengineered IAS rings; 10^−6 M acetylcholine): approximately 3 fold | average ΔP / force generated (bioengineered IAS rings; adult rat IAS rings, 10^−6 M acetylcholine): 8.925±2.4 μN | maximum force generated (FIG. 5 panel A) (bioengineered IAS rings; adult rat rings, n=3): 10.4±1.27 | force generated (bioengineered IAS rings; old rat IAS rings, 10^−6 M acetylcholine): 5.55±1.1 μN | maximum force generated (FIG. 5 panel A) (bioengineered IAS rings; old rat rings, n=4): 5.5±1.09 | less force generated by old rings than adult rings (bioengineered IAS rings; stimulated with acetylcholine): approximately 50% | contraction, percent decrease in cell length from control ([1]; 30 seconds): 28.85±3.20% | contraction, percent decrease in cell length from control ([1]; 4 minutes): 27.09±4.43% | decrease in cell length ([1]; 30 seconds): 0.5±4.47% | decrease in cell length ([1]; 4 minutes): 4±3.91% | maximal ΔP induced by acetylcholine stimulation [2]: 17.8 μN
